Experimental data reported in patent publication US5929112A, “Derivatives of N,N'-di (carboxyalkyl) alkylene di-or triamine” (L'Oreal, priority 1995, dated 1999).
Where a name gives a salt, the structure may show the parent alone.

Assay: Comparative solubility tests in 50 mM acetate buffer pH 5.8
Assay type: physicochemical
Conditions: aqueous buffer
From the text: COMPARATIVE SOLUBILITY TESTS

Structure (SMILES)	solubility [mg/mL]
COc1cc(CN(CCN(CC(=O)O)Cc2cc(OC)c(OC)c(OC)c2)CC(=O)O)cc(OC)c1OC [N,N'-bis-(3,4,5-trimethoxybenzyl) ethylenediamine-N,N'-diacetic acid, 2 HCl]	< 5
COc1cc(CN(CC(=O)O)CC(C)N(CC(=O)O)Cc2cc(OC)c(OC)c(OC)c2)cc(OC)c1OC (centres unmarked) [Example 1, N,N'-bis-(3,4,5-trimethoxybenzyl)-2-methyl ethylenediamine diacetic acid]	> 100
